Measured values from patent US11524956B2, “Alkyne substituted quinazoline compound and methods of use” (Newgen Therapeutics, Inc., priority 2011, dated 2022).

Tested on: NCI-N87 xenograft
Experiment: In vivo efficacy in NCI-N87 xenograft mouse model
Details: for RTV T/C / tumor growth inhibition: day-7 after treatment
Method: NCI-N87 cell line was purchased from ATCC (American Type Culture Collection) and was cultured in RPMI1640+10% FBS+1% P/S antibiotics.
Male Balb/c nude mice, 6-8 week, 18±2 g (supplier: Shanghai SLAC Laboratory Animal Co. Ltd.) were used for the experiment. The purchased mice were adapted to the environment for 7 days before use, and were housed at 22-25° C. with humidity 40-70%, and light cycle with fluorescent light for 12-hour light (8:00-20:00) 12-hour dark. The mice have free access to food and water.
The cancer cells (NCI-N87) were implanted subcutaneous into the nude mice (right flank) with 5.0×10^6 cells in 0.1 ml PBS (50 mice). When the tumor size reaches a volume of 200 (150-200) mm^3, the tumor-bearing nude mice were randomly assigned into groups (10 mice/group), one group was served as vehicle, one group was administrated with Lapatinib ditosylate monohydrate (80 mg/kg, free base of Lapatinib, not salt, p.o. […]). The other two groups were administrated with NT113 (also referred to as KID 113) ((15 and 30 mg/kg, p.o.q.d, respectively). The administration period lasted for 4 weeks.
The mice were monitored twice daily for appearance and behavior, and for signs of morbidity and/or mortality. The tumor volume was measured twice a week, and the body weight was measured immediately before measuring the tumor volume throughout the whole study.
At end of the experiment (compound administration for four weeks), all the tumor-bearing mice were sacrificed by cervical dislocation under deep anesthesia. The tumor mass was resected, and weighed.
Tumor sizes were measured twice weekly in two dimensions using a caliper, and the volume was expressed in mm^3 using the formula: V=½×a×b^2 where a and b are the long and short diameters of the tumor, respectively. The tumor mass was weighed at the end of the experiment after harvested.
V=½×a×b^2 (a, h is maximum and minimum diameters respectively).
RTV (Relative Tumor Volume)=Vt/Vo • Vo is the tumor volume when the test article is initial administrated • Vt is the tumor volume of every measurement day after test article administration
T/C (%)=TRTV/CRTV×100% • TRTV: RTV of test article-treatment group; CRTV: RTV of control group Inhibition rate (%)=(average tumor volume of control group average cancer volume of test article treatment group)/average tumor volume of control group×100%
The tumor-bearing mice were treated for 4 weeks with different doses of KU (15 mg/kg, 30 mg/kg, […]), qd) and Lapatinib KUA-1, 80 mg/kg, p.o., bid, 7 days/week. At the day-7 after treatment, the RTV TIC KU113 (15 mg/kg, 30 mg/kg) groups were <30%, and the tumor growth inhibition was >70%. but the RTV TIC was 31% and tumor growth inhibition rat was 69% in the lapatinib group. The same result was observed as well when it comes to the tumor weight. On day 28 after treatment, all the tumor-bearing mice were sacrificed, and all the tumor masses were harvested to weigh.

## CN(C)C/C=C/C(=O)Nc1cc2c(Nc3ccc(F)c(Cl)c3)ncnc2cc1C#C[C@@H]1[C@H]2COC[C@@H]12 [Example 4, (E)-N-(4-(3-chloro-4-fluorophenylamino)-7-(2-((1R,5S,6s)-3-oxa-bicyclo[3.1.0]hexan-6-yl)ethynyl)quinazolin-6-yl)-4-(dimethylamino)but-2-enamide]
15 mg/kg, po, qd
  tolerability (side effect): without predefined side effect
30 mg/kg group, by day 28
  body weight after dosing was stopped: recovered to normal
30 mg/kg, p.o., qd, 7 days/week
  body weight effect: body weight loss
15 mg/kg po qd
  RTV T/C: < 30%
  tumor growth inhibition: > 70%
30 mg/kg po qd
  RTV T/C: < 30%
  tumor growth inhibition: > 70%
